Measured values published in patent US9539342B2, “Auristatin tyramine phosphate salts and auristatin aminoquinoline derivatives and prodrugs thereof” (ARIZONA BOARD OF REGENTS, A BODY CORPORATE OF THE STATE OF …, priority 2011, dated 2017).
In brackets after ≈: the same amount, converted by molar mass. Read-outs that look alike come from different tables or passages of the source.

How the values were obtained:
CNS (SF-268) = assay: Human cancer cell line minipanel: SF-268; assay type: cell-based; conditions: for GI50: read-out: GI50 SF-268 (nanomolar value in parentheses)
[1] = system: murine P388 lymphocytic leukemia cell line; assay: Murine P388 lymphocytic leukemia cell line growth inhibition; assay type: cell-based; conditions: for Activity against P388 (in words): murine P388 lymphocytic leukemia cell line
breast (MCF-7) = assay: Human cancer cell line minipanel: MCF-7; assay type: cell-based; conditions: for GI50: read-out: GI50 MCF-7 (nanomolar value in parentheses)
lung (NCI-H460) = assay: Human cancer cell line minipanel: NCI-H460; assay type: cell-based; conditions: for GI50: read-out: GI50 NCI-H460 (nanomolar value in parentheses)
[2] = Solubility in distilled water
Experimental: The remaining salts (3e-h) were prepared directly from the free acid 10b by treatment with the appropriate base or amino acid. The solubilities of each salt and of precursor 9 were measured in distilled water at room temperature.

prostate (DU-145) = assay: Human cancer cell line minipanel: DU-145; assay type: cell-based; conditions: for GI50: read-out: GI50 DU-145 (nanomolar value in parentheses)
colon (KM20L2) = assay: Human cancer cell line minipanel: KM20L2; assay type: cell-based; conditions: for GI50: read-out: GI50 KM20L2 (nanomolar value in parentheses)
pancreas (BXPC-3) = assay: Human cancer cell line minipanel: BXPC-3; assay type: cell-based; conditions: for GI50: read-out: GI50 BXPC-3 (nanomolar value in parentheses)
[3] = system: minipanel of human cancer cell lines; assay: Minipanel of human cancer cell lines (summary); assay type: cell-based; conditions: for GI50 (order of magnitude over the cell lines): summary of cancer cell growth inhibition
[4] = Storage stability of the free phosphoric acid; assay type: physicochemical; conditions: storable for short periods as methanolic solution (<0.01 M at 4° C.)
From the text: The most soluble were the sodium (3b) and potassium (3c) salts (Table 2).

[5] = murine lymphocytic leukemia (P388)
[6] = murine lymphocytic leukemia (P388), read-out: ED50 P388 (nanomolar value in parentheses)

Row | Molecule | GI50 SF-268 (CNS (SF-268)) | GI50 (CNS (SF-268)) | Activity against P388 (in words) [1] | ED50 P388 [1, 5] | EC50 [1, 6] | GI50 MCF-7 (breast (MCF-7)) | GI50 (breast (MCF-7)) | GI50 NCI-H460 (lung (NCI-H460)) | GI50 (lung (NCI-H460)) | Solubility ([2]; in distilled water at 23° C.) | GI50 DU-145 (prostate (DU-145)) | GI50 (prostate (DU-145)) | GI50 KM20L2 (colon (KM20L2)) | GI50 (colon (KM20L2)) | GI50 BXPC-3 (pancreas (BXPC-3)) | GI50 (pancreas (BXPC-3)) | Activity against minipanel of human cancer cell lines (in words) [3] | GI50 (order of magnitude over the cell lines) [3] | other results
1 | Sodium Auristatin TP [Compound 3b] | 1.25 ng/mL | 1.48 nM | exceptional activity | <1 ng/mL | < 1.2 nM | 0.68 ng/mL | 0.81 nM | 0.88 ng/mL | 1.05 nM | >236 mg/mL | 0.54 ng/mL | 0.64 nM | 0.61 ng/mL | 0.72 nM | 46 ng/mL | 54.6 nM | similarly strong activity | 10^−2-10^−4 μg/mL | –
2 | CC[C@H](C)[C@@H]([C@@H](CC(=O)N1CCC[C@H]1[C@H](OC)[C@@H](C)C(=O)NCCc1ccc(OP(=O)([O-])[O-])cc1)OC)N(C)C(=O)[C@@H](NC(=O)[C@H](C(C)C)N(C)C)C(C)C.[Li+].[Li+] [Compound 3a, Lithium Auristatin TP] | – | – | – | – | – | – | – | – | – | >65 mg/mL | – | – | – | – | – | – | – | – | –
3 | CC[C@H](C)[C@@H]([C@@H](CC(=O)N1CCC[C@H]1[C@H](OC)[C@@H](C)C(=O)Nc1ccc2ncccc2c1)OC)N(C)C(=O)[C@@H](NC(=O)[C@H](C(C)C)N(C)C)C(C)C [Compound 5, Dov-Val-Dil-Dap-6-aminoquinoline] | 0.16 ng/mL (≈ 0.000221 µM) | 0.22 nM | exceptional activity | 2.6 ng/mL (≈ 0.00359 µM) | 3.59 nM | 0.14 ng/mL (≈ 0.000193 µM) | 0.19 nM | 0.36 ng/mL (≈ 0.000497 µM) | 0.5 nM | – | 0.3 ng/mL (≈ 0.000414 µM) | 0.41 nM | 0.25 ng/mL (≈ 0.000345 µM) | 0.35 nM | 0.31 ng/mL (≈ 0.000428 µM) | 0.43 nM | similarly strong activity | 10^−4 μg/mL | –
4 | CC[C@H](C)[C@@H]([C@@H](CC(=O)N1CCC[C@H]1[C@H](OC)[C@@H](C)C(=O)NCCc1ccc(OP(=O)([O-])[O-])cc1)OC)N(C)C(=O)[C@@H](NC(=O)[C@H](C(C)C)N(C)C)C(C)C.[K+].[K+] [Compound 3c, Potassium Auristatin TP] | – | – | exceptional activity | 7.6 ng/mL | 8.7 nM | – | – | – | – | >120 mg/mL | – | – | – | – | – | – | – | – | –
5 | CC[C@H](C)[C@@H]([C@@H](CC(=O)N1CCC[C@H]1[C@H](OC)[C@@H](C)C(=O)NCCc1ccc(OP(=O)(O)O)cc1)OC)N(C)C(=O)[C@@H](NC(=O)[C@H](C(C)C)N(C)C)C(C)C.NC(CO)(CO)CO [Compound 3f, TRIS Auristatin TP] | – | – | – | – | – | – | – | – | – | >51 mg/mL | – | – | – | – | – | – | – | – | –
6 | CCC(C)C(C(CC(=O)N1CCCC1C(OC)C(C)C(=O)NCCc1ccc(OP(=O)(O)O)cc1)OC)N(C)C(=O)C(NC(=O)C(C(C)C)N(C)C)C(C)C (stereo not drawn) [Compound 10b, Dov-Val-Dil-Dap-4-(dihydrophosphoryloxy)phenethylamide] | – | – | – | – | – | – | – | – | – | – | – | – | – | – | – | – | – | – | Stability of the pure substance (in words) [4]: quite unstable
7 | Dov-Val-Dil-Dap-2-aminoquinoline [Compound 4] | 29 ng/mL | 40.1 nM | exceptional activity | 31 ng/mL | 42.8 nM | 4.6 ng/mL | 6.35 nM | 16 ng/mL | 22.1 nM | – | 23 ng/mL | 31.8 nM | 7.7 ng/mL | 10.6 nM | 29 ng/mL | 40.1 nM | similarly strong activity | 10^−2-10^−3 μg/mL | –
8 | C1COCCN1.CC[C@H](C)[C@@H]([C@@H](CC(=O)N1CCC[C@H]1[C@H](OC)[C@@H](C)C(=O)NCCc1ccc(OP(=O)(O)O)cc1)OC)N(C)C(=O)[C@@H](NC(=O)[C@H](C(C)C)N(C)C)C(C)C [Compound 3d, Morpholine Auristatin TP] | – | – | – | – | – | – | – | – | – | >72 mg/mL | – | – | – | – | – | – | – | – | –
9 | CC[C@H](C)[C@@H]([C@@H](CC(=O)N1CCC[C@H]1[C@H](OC)[C@@H](C)C(=O)NCCc1ccc(O)cc1)OC)N(C)C(=O)[C@@H](NC(=O)[C@H](C(C)C)N(C)C)C(C)C [Compound 9, Dov-Val-Dil-Dap-4-hydroxyphenethylamide] | – | – | exceptional activity | 3.6 ng/mL (≈ 0.00501 µM) | – | – | – | – | – | – | – | – | – | – | – | – | – | – | EC50 ([1]; Mus musculus, P388, read-out: ED50 P388 (nanomolar value in parentheses)): 5 nM; Solubility [2]: <1 mg/mL
